The values below come from PubChem BioAssay AID1159563 (GlaxoSmithKline (GSK), 2015).

The subject of the test is HepG2 cytotoxicity. Put plainly: HepG2 cell cytotoxicity, cytotoxicity control (AID 1159563).

Molecules are shown by their SMILES. The source made the active and inactive calls. How the calls were made is not given here. Some results are limits rather than exact numbers.

One may read the IC50 as the point on the concentration scale where inhibition reaches its midpoint. In the case of `Cc1nc(-c2ccc3c(c2)OCO3)sc1C(=O)NCc1ccc2c(c1)OCO2`, the IC50 is > 100 µM (inactive).
Then `C=CC[C@@H]1CC=C[C@@H](C)N1C(=O)CCc1nnc(-c2ccc3c(c2)OCO3)o1`, with > 100 µM (inactive); and `O=C(CN1CCN(S(=O)(=O)c2cccc([N+](=O)[O-])c2)CC1)Nc1ccc(Oc2ccccc2)cc1`, with > 100 µM (inactive); and `C=CCn1nc([N+](=O)[O-])nc1Oc1ccc(Cl)cc1Cl`, with > 100 µM (inactive).
Then `O=C(COc1ncnc2cc([N+](=O)[O-])ccc12)NC(=O)NC1CCCCC1`, with > 100 µM (inactive).
Turning to `O=c1[nH]ccc2ccc(-c3ccncc3)cc12`, the IC50 was > 100 µM (inactive).
The same measure for `Cc1cn[nH]c1C1CCCN(Cc2nc3ccccc3n2C)C1` (centres undefined): 50 µM; for `CC(C(=O)Nc1ccccc1F)N(C)CC(=O)Nc1cccc2ccccc12` (centres undefined): > 100 µM (inactive).
Take `Cc1cc(NC(=O)CC2CCCCC2)n(-c2nc3c(c(=O)[nH]2)CCC3)n1`: the IC50 is > 100 µM (inactive).
Then `O=C(Nc1nc(-c2ccccn2)cs1)c1ccc(S(=O)(=O)N2CCCCC2)cc1`, with 63 µM; and `CCOc1ccc(Nc2ccc(S(=O)(=O)N3CCN(C)CC3)cc2[N+](=O)[O-])cc1OCC`, with > 100 µM (inactive).
As to `Cc1cc(N(C)C)nc(Nc2ccccc2C)n1`, the IC50 was 63 µM.
Then `CC(C)COC(=O)Nc1ccc(N2CCC(CNS(=O)(=O)c3ccccc3)CC2)c(F)c1`, with > 100 µM (inactive); and `CC(C)(C)C(=O)Nc1cc(C2CC2)nn1-c1nc2c(c(=O)[nH]1)CCCC2`, with > 100 µM (inactive); and `Cc1[nH]nc(C(F)(F)F)c1NC(=O)CCn1cc(Cl)c([N+](=O)[O-])n1`, with > 100 µM (inactive).
In the case of `CS(=O)(=O)N1CCC(Nc2ncc(Br)c(Nc3cccc(F)c3C(N)=O)n2)CC1`, the IC50 is > 100 µM (inactive).
Then `COc1ccc(-c2ccc3nnc(-c4ccc(O)c(OC)c4)n3c2)cn1`, with > 100 µM (inactive); and `CN1C(=O)c2ccccc2Sc2ccc(NC(=O)NCc3ccco3)cc21`, with > 100 µM (inactive).
Regarding `Cc1ccc2c(c1)-c1onc(C(=O)N3CCCCC3c3cccnc3)c1CO2` (centres undefined), the IC50 is 50 µM.
Then `CN(C)S(=O)(=O)c1ccc(Cl)c(C(=O)Nc2nc(-c3ccccn3)cs2)c1`, with > 100 µM (inactive); and `O=C(NCC1CCCCN1C(=O)c1cccc2ccccc12)c1ccccc1` (centres undefined), with > 100 µM (inactive); and `CCCCNc1nccc(-c2c(-c3ccc(F)cc3)nn3c(N4CCOCC4)cccc23)n1`, with > 100 µM (inactive).
The same measure for `CN(C)Cc1ccc(-c2ccc(S(=O)(=O)NCC3CCCO3)c(F)c2)cc1` (centres undefined): > 130 µM (inactive); for `Cc1ccccc1CNC(=O)CN(Cc1ccccn1)Cc1ccccn1`: > 160 µM (inactive); for `COc1ccc(Oc2ccc(C(C)N(C)c3ncc4c(N)nc(N)nc4n3)cc2)cc1` (centres undefined): 40 µM.
As for `CC(=O)Nc1cccc(Nc2ncnc3nc[nH]c23)c1`, the IC50 is > 100 µM (inactive).
Then `Cn1nccc1-c1cc(OC(CN)c2ccccc2)cnc1-c1ccco1` (centres undefined), with 50 µM.
Turning to `COCCn1cnc2cc(NC(=O)C3CCCCC3)cc(C(=O)N3CCc4sccc4C3)c21`, the IC50 was > 100 µM (inactive).
For the compound `COc1ccc(-c2cc(C)no2)cc1S(=O)(=O)Nc1ccc(C)c(C)c1`, the IC50 was > 100 µM (inactive).
The same measure for `COc1ccc(NS(=O)(=O)c2ccc(S(=O)(=O)N(C)C3CCCCC3)cc2)c2ncccc12`: > 100 µM (inactive).
As for `CN(Cc1nnnn1C1CCN(Cc2ccc(-n3ccnc3)cc2)CC1)c1ccc(F)cc1F`, the IC50 is > 100 µM (inactive).
Consider `CCC(c1ccc(F)cc1)n1cncc1-c1cnn(C)c1` (centres undefined), for which the IC50 was > 100 µM (inactive).
As for `NC(=O)c1ccc(-c2cccc(OCCN3CCN(C4CCCCC4)CC3)c2)cc1`, the IC50 was 50 µM.
Take `c1ccc(-c2nc(NC3CCCC3)c3ccccc3n2)nc1`: the half-maximal inhibitory concentration (IC50) was 16 µM.
On to `O=C1NCCn2ccc(Nc3nc(NC4CCC(O)CC4)ncc3Cl)c21` (centres undefined), for which the IC50 is > 100 µM (inactive).
In the case of `Cc1ccc(S(=O)(=O)Nc2ccc(CN3CCN(C(=O)c4cccc(C#N)c4)CC3)cc2)cc1`, the IC50 is > 100 µM (inactive).
Turning to `CCOc1ccc2nc(NC(=O)c3ccc([N+](=O)[O-])s3)sc2c1`, the IC50 is 32 µM.
Turning to `COc1cccc(C(=O)[C@H]2C[C@@H]2CN(Cc2cccnc2)Cc2cccnc2)c1`, the IC50 is > 100 µM (inactive).
Consider `N#Cc1ccc(Br)cc1[N+](=O)[O-]`, for which the IC50 was 20 µM.
The same measure for `CC(CNS(=O)(=O)c1ccc(OC(F)F)cc1)c1ccc(NC(=O)c2ccncc2)cc1` (centres undefined): 100 µM; for `COc1ccc(NS(=O)(=O)c2cccc(NC(=O)c3cc(F)cc(F)c3)c2)cc1`: 32 µM; for `O=C(NCCc1ccccc1Cl)c1cccn1-c1cccnc1`: > 100 µM (inactive).
On to `NC(=O)c1cc(NC(=O)c2ccccc2COc2ccccc2)ccc1Cl`, for which the IC50 was > 100 µM (inactive).
The same measure for `CN(Cc1ccc(C(N)=O)cc1)C(c1ccc(F)cc1)c1cccnc1` (centres undefined): > 100 µM (inactive).
The same measure for `Clc1cc(Br)ccc1OCCCCn1ccnc1`: 50 µM.
For the compound `N#Cc1cccc(CN2CCC(c3nc(-c4ccc(C(F)(F)F)nc4)no3)CC2)c1`, the IC50 is > 100 µM (inactive).
Then `COc1ccc(CN2C(=O)C(O)(CC(=O)c3ccncc3)c3cc(Br)ccc32)cc1OC` (centres undefined), with 40 µM; and `CC(C)(C)CC(=O)NCc1noc(COc2ccccc2)n1`, with > 100 µM (inactive); and `Cc1cc(Nc2cc(C3CC3)[nH]n2)nc(N2CCC[C@H]2C(N)=O)n1`, with > 100 µM (inactive).
The same measure for `CNS(=O)(=O)c1ccccc1Nc1nc(Nc2cc(C)nn2C)ncc1Cl`: 4 µM; for `Cc1cc(Nc2ccc(C#N)c(Cl)c2C)n[nH]1`: > 100 µM (inactive); for `CCOc1ccc(N(C)S(=O)(=O)c2ccc3[nH]cc(C(=O)NC4CCCC4)c(=O)c3c2)cc1`: 50 µM.
In the case of `COc1cc(NC(=O)Nc2cccc(CNC(=O)OC3CCCCC3)c2)ccc1-c1cnco1`, the IC50 was 40 µM.
With `NC(=O)c1ccccc1Nc1nc(NC2CCCCC2)nc2[nH]ccc12`, the IC50 is 20 µM.
The same measure for `Cc1ccc2c(c1)SC(C(=O)Nc1n[nH]c(-c3ccccn3)n1)C2` (centres undefined): 25 µM; for `OCCCNc1nc(Nc2ccncc2)nc2ccccc12`: > 100 µM (inactive); for `CC(=Cc1ccccc1)CN1CCC(=O)N(Cc2cccnc2)CC1`: > 100 µM (inactive).
As for `CC(=O)Nc1nc(-c2cc(C)ccc2C)c(C)s1`, the IC50 is > 100 µM (inactive).
Then `O=C(CN(Cc1ccccn1)Cc1ccccn1)NCc1csc(-c2cccs2)n1`, with > 100 µM (inactive); and `COc1ccc2nc(N(Cc3cccnc3)C(=O)C3CCC3)sc2c1`, with > 100 µM (inactive); and `CCC1Oc2cc(S(=O)(=O)N(C)CC(=O)N3CCc4ccccc4C3)c(C)cc2NC1=O` (centres undefined), with > 100 µM (inactive).
For `COc1ccc(OC)c(NC(=O)c2ccc([N+](=O)[O-])o2)c1`, the 50% inhibitory concentration (IC50) was 20 µM.
Take `O=C(Nc1ccc(-c2nc3ccccc3c(=O)[nH]2)cc1)c1cccs1`: the IC50 is > 100 µM (inactive).
With `N#Cc1cc([N+](=O)[O-])ccc1NC1CCCCCC1`, the IC50 is > 100 µM (inactive).
On to `CN(Cc1nc2ccccc2s1)C(=O)C=Cc1cc2ccccc2o1`, for which the IC50 is > 100 µM (inactive).
For `CCCn1c(NC(=O)CCn2cc(Br)cn2)nc2ccccc21`, the IC50 is > 100 µM (inactive).
The same measure for `COc1ccc(CN2CCCCC2c2nc(-c3cccnc3)no2)cc1` (centres undefined): > 100 µM (inactive); for `CN(C)c1ccc(-c2cc3nccnc3c(OC[C@H]3CCCNC3)n2)cn1`: 63 µM.
Then `CCN(C)Cc1ccc(N2CCC(NS(=O)(=O)c3ccc4c(c3)CCO4)CC2)nc1`, with > 100 µM (inactive).
The same measure for `Cc1cccnc1NC(=O)c1cccc(OCc2c(C)noc2C)c1`: > 100 µM (inactive).
For the compound `O=C(Cc1ccccc1)Nc1[nH]nc2sc(C(=O)NC3CCCC3)cc12`, the IC50 was 50 µM.
The same measure for `c1cncc(CN(Cc2ccco2)Cc2cn[nH]c2-c2cccs2)c1`: > 100 µM (inactive).
Then `COc1cccc(CN(C)Cc2nc(N)c3c(C)c(C)sc3n2)c1`, with 40 µM.
Then `Cc1cc(Br)sc1CNCCCNc1cc(=O)c2ccccc2[nH]1`, with 40 µM.
Turning to `CCCN(Cc1ccc(OC)c(OC)c1)Cc1cc(=O)c2c(C)cc(C)cc2[nH]1`, the IC50 was 63 µM.
For the compound `CNS(=O)(=O)c1ccccc1Nc1nc(Nc2ccnn2C)ncc1Cl`, the IC50 was 50 µM.
Then `COc1ncc(-c2ccc3nccc(-c4ccncc4)c3c2)cc1NS(C)(=O)=O`, with > 100 µM (inactive); and `COc1cccc2sc(CN(C)C(=O)C3CNCCN3c3ccc(F)cc3)c(C)c12` (centres undefined), with 13 µM; and `Fc1ccccc1N1C[C@H]2CCN(c3cccnc3)C[C@H]2C1`, with > 100 µM (inactive).
The same measure for `CNC(=O)C1Cc2ccccc2N1C(=O)Cc1ccccc1` (centres undefined): > 100 µM (inactive); for `Clc1ccc(OCCN2CCCCC2c2cccnc2)c(Cl)c1` (centres undefined): 79 µM.
Consider `Cn1nc(-c2ccc(NC(=O)Cc3ccccc3Cl)cc2)c2c(N)ncnc21`, for which the IC50 is > 100 µM (inactive).
The same measure for `N#Cc1cccc(Cc2cc(Nc3cc(C4CC4)[nH]n3)nc(N3CC[C@H]3C(N)=O)n2)c1`: > 100 µM (inactive).
Then `O=C(Nc1ccc(C(F)(F)F)cc1)NC1(C(=O)NCc2ccco2)CCCCC1`, with > 100 µM (inactive); and `Cc1cc2cncn2c(C2CCCCN2C(=O)c2cccs2)n1` (centres undefined), with > 100 µM (inactive).
Then `O=C(Nc1nc(-c2ccccn2)cs1)c1ccccc1-n1cnnn1`, with 1.6 µM.
As to `COc1ccc(-c2csc(NC(=O)c3ccc([N+](=O)[O-])s3)n2)cc1OC`, the IC50 is 10 µM.
Then `COc1ccc(Cl)cc1CC(=O)Nc1n[nH]c(-c2ccccn2)n1`, with 32 µM.
The same measure for `O=C(c1ccccc1)N1CCC(C(=O)N2CCC(Oc3ccccc3Cl)CC2)CC1`: > 100 µM (inactive).
